Reference: the supplement of paper PMC4954754
“And” between values parts separate entries of the source, which are not always exact repeats. Identical values can stand only once. ± gives the uncertainty stated by the source.

Tests used:
Conditions in all cases: 18 h
HEK293T-Rex ERSE-FLuc [1] = experiment: EC50 for ERSE-FLuc reporter activation
Protocol: (§1)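 Dose-response of hit compounds in HEK293T-Rex cells stably expressing ERSE-FLuc or XBP1-RLuc reporters, 18 hr treatment, 1536-well; luminescence normalised to 500 nM thapsigargin (100%) and DMSO (0%), fitted to give EC50 (M) and maximal activation; '>' marks EC50 above the top tested dose (~17 µM).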

HEK293T-Rex XBP1-RLuc [2] = experiment: EC50 for XBP1-RLuc reporter activation
Protocol: as §1

HEK293T-Rex ERSE-FLuc [3] = experiment: maximal ERSE-FLuc activation from dose-response fit, relative to thapsigargin (% of thapsigargin); higher = stronger activation
Protocol: as §1

HEK293T-Rex XBP1-RLuc [4] = experiment: maximal XBP1-RLuc activation from dose-response fit, relative to thapsigargin (% of thapsigargin); higher = stronger activation
Protocol: as §1

Row | SMILES | EC50 for ERSE-FLuc reporter activation (HEK293T-Rex ERSE-FLuc [1]) | EC50 for XBP1-RLuc reporter activation (HEK293T-Rex XBP1-RLuc [2]) | maximal ERSE-FLuc activation (HEK293T-Rex ERSE-FLuc [3]) | maximal XBP1-RLuc activation (HEK293T-Rex XBP1-RLuc [4])
1 | Oc1ccc(-c2csc(-c3cccnc3)n2)cc1O | 7.5 µM | 12.8 µM | 71.5 ± 11 | 80.1 ± 5.1
2 | N#Cc1c(NC(=O)c2ccc3c(c2)OCO3)sc2c1CCCC2 | > 16.9 µM | > 16.9 µM | 18.3 ± 3.2 | 1.79 ± 3.7
3 | O=C(Nc1ccc(O)cc1)c1c(O)c2c([nH]c1=O)CCCC2 | > 16.1 µM | > 16.1 µM | 22.3 ± 2.9 | 28.5 ± 3.6
4 | O=c1[nH]c(/C=C2\C=Nc3ccccc32)c(O)n1-c1cccc(Cl)c1 | 2.5 µM | 2.18 µM | 67.9 ± 1 | 74.9 ± 7.7
5 | O=C(N/N=C/c1ccc(O)c(O)c1)c1cccc(Cl)c1 | 13.6 µM | > 16.9 µM | 69.2 ± 4.9 | 29.3 ± 2.4
6 | CCCCNC(=O)c1cc(-c2cccs2)on1 | 6.65 µM | > 16.9 µM | 107 ± 7.8 | 10.3 ± 2.2
7 | C=CCNC(=O)c1sc2nc3cc(C)c(C)cc3cc2c1N | > 16.9 µM | > 16.9 µM | 8.68 ± 2 | 2.32 ± 1.2
8 | CC(=O)NC1C(OC2OC(CC(O)C3OC(n4ccc(=O)[nH]c4=O)C(O)C3O)C(O)C(O)C2NC(=O)/C=C\CCCCCCCCCC(C)C)OC(CO)C(O)C1O (configuration not stated) | 0.521 µM | > 16.9 µM | 139 ± 19 | 45 ± 4.9
9 | Nc1ccc2nc(-c3ccccn3)[nH]c2c1 | > 16.9 µM | > 16.9 µM | 16.8 ± 4.6 | 22 ± 0.38
10 | COc1ccc(-c2cc(C(=O)Nc3cc(C)ccc3O)on2)cc1OC | > 16.9 µM | > 16.9 µM | 29.1 ± 5.3 | 9.55 ± 5.6
11 | O=C(NCCc1ccccc1)c1cc(-c2cccs2)on1 | 12.4 µM | > 16.9 µM | 64.6 ± 9.1 | 8.27 ± 3.3
12 | CCCCNC(=O)c1cc(-c2ccc(F)cc2)on1 | 12.2 µM | > 16.9 µM | 68.7 ± 8.5 | 9.22 ± 4.7
13 | O=C(N/N=C/c1ccc2c(c1)OCO2)c1cccc(F)c1 | > 16.9 µM | > 16.9 µM | 20.8 ± 5.2 | 5.7 ± 0.65
14 | O=c1[nH]c(COc2ccccc2)nc2sc3c(c12)CCCC3 | > 16.3 µM | > 16.3 µM | 23.3 ± 2.4 | 6.01 ± 1.1
15 | COc1ccc2[nH]c3c(N4CCCCC4)ncnc3c2c1 | > 17.1 µM | > 17.1 µM | 27.4 ± 2.9 | 9.73 ± 1.4
16 | C/C=C(/C)C(=O)O[C@H]1C(C)=C2[C@H]([C@@H]1OC(=O)CCCCCCC)[C@@](C)(OC(C)=O)C[C@H](OC(=O)CCC)[C@@]1(O)[C@H]2OC(=O)[C@@]1(C)O | 0.07 µM and 0.0669 µM | 0.11 µM and 0.146 µM | 100 and 87.8 | 127 and 103
17 | Cc1ccc(O)c(NC(=O)CN(C)S(=O)(=O)c2ccc(Cl)cc2)c1 | > 16.9 µM | > 16.9 µM | 43.4 ± 10 | 31.4 ± 0.96
18 | CCC(=O)N(Cc1cc2cc(C)ccc2n2nnnc12)C1CCCC1 | > 16.9 µM | > 16.9 µM | 20.1 ± 5.6 | 1.64 ± 4.2
19 | Cc1ccc(O)c(N=CC2=C(O)c3ccccc3C2=O)c1 | 3.75 µM | > 16.9 µM | 74.8 ± 16 | 35.5 ± 4.2
20 | Nc1nc(Nc2ccc(Cl)cc2)nc2ccccc12 | 9.57 µM | 8.74 µM | 103 ± 24 | 56.4 ± 4.6
21 | COc1ccc(-c2csc(-c3ccc(O)cc3)n2)cc1 | > 19.1 µM | > 19.1 µM | 30.9 ± 6.5 | 33.9 ± 1.9
22 | Cc1cc(C)nc(Nc2nc(-c3ccc(O)c(O)c3)cs2)n1 | > 16.9 µM | 14.1 µM | 39.7 ± 7.3 | 59.1 ± 1.4

Row | SMILES | EC50 for ERSE-FLuc reporter activation (HEK293T-Rex ERSE-FLuc [1]) | EC50 for XBP1-RLuc reporter activation (HEK293T-Rex XBP1-RLuc [2]) | maximal ERSE-FLuc activation (HEK293T-Rex ERSE-FLuc [3]) | maximal XBP1-RLuc activation (HEK293T-Rex XBP1-RLuc [4])
23 | CCCNC(=O)c1cc(-c2cccs2)on1 | 7.59 µM | > 16.9 µM | 92.7 ± 11 | 9.95 ± 1.4
24 | CCCCCCc1ccc(-c2ncc(N)cn2)cc1 | 5.65 µM | > 16.9 µM | 76.7 ± 9.1 | 44.3 ± 1.5
25 | Cc1cc(C)c(OCC(=O)N/N=C/c2ccc(O)c(O)c2)c(Br)c1 | > 16.9 µM | > 16.9 µM | 49.6 ± 5.9 | 41.1 ± 11
26 | Cc1ccc(C(=O)Nc2sc3c(c2C#N)CCC3)cc1 | > 16.7 µM | > 16.7 µM | 17.6 ± 5 | 2.39 ± 0.61
27 | O=C(COC(=O)c1ccc(O)c(O)c1)Nc1nc(-c2ccccc2)cs1 | > 18.2 µM | 16.8 µM | 36.1 ± 4.4 | 53.4 ± 3.6
28 | O=[N+]([O-])c1ccc2nc(/C=C/c3ccccc3)[nH]c2c1 | > 16.9 µM | > 16.9 µM | 23.7 ± 12 | 3.13 ± 2.4
29 | O=C(N/N=C/c1cccc(Cl)c1Cl)c1ccccc1O | > 16.9 µM | > 16.9 µM | 6.19 ± 0.61 | 2.04 ± 0.65
30 | Cc1ccc(O)c(NC(=O)c2cc(-c3cccs3)on2)c1 | 2.78 µM | > 16.9 µM | 126 ± 5.9 | 32.4 ± 6.1
31 | O=C(Nc1ccccc1O)c1cc2ccccc2o1 | > 21 µM | > 21 µM | 40.6 ± 8.2 | 20.1 ± 3.2
32 | O=C(N/N=C/c1ccc(O)c(O)c1)c1ccc(Br)cc1 | 16 µM | 16.8 µM | 51.2 ± 4.4 | 50.1 ± 4.6
33 | O=[N+]([O-])c1ccc(N/N=C/c2ccccc2O)cc1 | > 16.9 µM | 13 µM | 44.5 ± 7.8 | 68.9 ± 7.5
34 | CCc1ccc(NC(=O)/C=C/c2ccco2)cc1 | > 16.8 µM | > 16.8 µM | 19.3 ± 2.3 | 4.4 ± 8.8
35 | Cc1ccc(O)c(NC(=O)c2cc(C(C)C)on2)c1 | > 16.9 µM | > 16.9 µM | 39.9 ± 7.2 | 14.4 ± 1.7
36 | CNc1ccc2oc(C[C@H]3O[C@@]4(CC[C@H]3C)O[C@H]([C@H](C)C(=O)c3ccc[nH]3)[C@H](C)C[C@H]4C)nc2c1C(=O)O | 2.39 µM | 4.49 µM | 56.9 ± 16 | 91.4 ± 5.9
37 | Cc1ccc(/C=C(\C#N)C(=O)Nc2cccc(Cl)c2)o1 | > 16.9 µM | > 16.9 µM | 14.7 ± 3.1 | 3.54 ± 1.9
38 | C=CCNC(=O)c1cc(-c2cccs2)on1 | 5.28 µM | > 16.9 µM | 124 ± 2.7 | 12.8 ± 0.79
39 | O=C(CCCN1CCC2(CC1)C(=O)NCN2c1ccccc1)c1ccc(F)cc1 | 7.34 µM | 3.23 µM | 157 ± 16 | 186 ± 12
40 | N#C/C(=C\c1ccc(O)c(O)c1)C(=O)Nc1ccccc1 | 24.6 µM | > 33.8 µM | 52.2 ± 13 | 21.5 ± 0.57
41 | Cc1cc(C)nc(/N=C(\N)Nc2ccc(OCCC(C)C)cc2)n1 | > 15.5 µM | > 5.17 µM | 45.3 ± 7.7 | 89.1 ± 9.1
42 | CC1(C)Cc2ccccc2/C(=C/C(=O)C(=O)N/N=C/c2ccc(O)c(O)c2)N1 | > 16.9 µM | 6.13 µM | 39 ± 3.2 | 54.9 ± 3.4
43 | CN(C)c1ccc(/C=C/C(=O)NC(=O)c2ccccc2OC(=O)c2ccccc2)cc1 | > 12.9 µM | > 12.9 µM | 25 ± 1.2 | 11.5 ± 1.4
